Test results published in patent US8138309B2, “Modified rubisco large subunit n-methyltransferase useful for targeting molecules to the active-site vicinity of ribulose-1,5-bisphosphate” (University of Kentucky Research Foundation, priority 2008, dated 2012).

Target: T1, spinach Rubisco (Spinacia oleracea, UniProt P00875)
T1 construct: Spinach and pea Rubisco, and pea Rubisco LSMT were purified according to McCurry; from tissue
Experiment: Rubisco carboxylase assay (14CO2 fixation, O2-free, CO2-free buffers), spinach Rubisco
Type: biochemical
Conditions: added to the Rubisco complex containing bound CA before the assay; AdoMet 100 μM
Experimental: Kinetic analyses were performed as described previously for Rubisco Lorimer, G. H., Badger, M. R., and Andrews, T. J. Biochemistry 15, 529-536.1976. Pierce, J. W., McCurry, S. D., Mulligan, R. M., and Tolbert, N. E. Methods Enzymol. 89 Pt D, 47-55.1982. Assays were conducted under O2 free conditions with CO2-free buffers as described below, and contained normalized Rubisco and hCAII activities, unless otherwise indicated. The assays contained, unless otherwise indicated, 100 mM Bicine adjusted to pH 8.2 with a saturated NaOH solution, 20 mM MgCl2, 2 mM dithiothreitol, 0.5 mM RuBP, and NaH^14 CO3 (1.0 mCi/mmol). Reactions were initiated by the addition of activated Rubisco, or conjugate, injected into an 8 mL serum capped vial (first flushed with nitrogen). Activation of Rubisco or conjugate was performed at 2 mg/mL by incubation at 30 C for 15 min in 50 mM Bicine, pH 8.2, containing 20 mM MgCl2 and 15 mM NaH^14CO3. Assay times, enzyme masses, volumes, or specific activities were adjusted to limit substrate consumption to 10% or less. The assays were terminated by the addition by 2N HCl (0.4 volumes), and the liquid evaporated to dryness under a stream of air at 50° C. Radioactivity was determined with a liquid scintillation analyzer (Packard 2000 CA), after addition of 0.5 mL H20 and 4.5 mL of cocktail (Bio-Safe II, RPI). […]

effect on the stimulation of carboxylase activity by bound CA: the effect of bound CA was abolished
Structure (SMILES): C[S+](CC[C@H](N)C(=O)[O-])C[C@H]1O[C@@H](n2cnc3c(N)ncnc32)[C@H](O)[C@@H]1O (stereo partly shown) [AdoMet, S-adenosylmethionine]
